Assay results as given in ChEMBL document CHEMBL3507680, “University of Dundee, Gates Library screen for HepG2 cell viability”.

Assay: Human HepG2 cell viability assay in 384 well format
Type: toxicity, cell-based
Parameters: dose 125 nL, time 70.5 hour; cytotoxicity at 70.5 h: concentration not given beside the values
Conditions: HepG2 cells, read-out: Inhibition

SMILES | cytotoxicity at 70.5 h [%]
CSc1ncc(CNC(C)c2cnn(-c3ccccc3)c2C)cn1 (stereo unspecified) | -2.21
CC(C)[C@@H]1CN(CCOc2ccccc2)C[C@H]1NS(=O)(=O)N(C)C | -5.28
CN(C)C(=O)N1CCN(CCCOc2ccccc2)[C@H]2CS(=O)(=O)C[C@H]21 | -5.64
CCNc1ncc(C(=O)NCC2OCCc3ccccc32)cn1 (stereo unspecified) | -3.21
O=C1Nc2ccccc2NC12CCN(c1cccc(C(F)(F)F)n1)CC2 | 52.4
CCc1cnc(NCc2ccccc2Cn2cccn2)nc1 | 0.071
CSCCCN1C[C@H](NC(=O)c2ccc(CO)cc2)[C@@H](C2CC2)C1 | -9.41
CSCC(=O)N1CCc2c(cnc(C)c2-c2noc(-c3cscn3)n2)C1 | -15.6
COc1ccc(-c2cc(CNc3ncnc4c3CCNCC4)no2)cc1 | 23.4
c1nc(NCc2cc3n(n2)CCN(C2CCCCC2)C3)c2nc[nH]c2n1 | -11.7
Cn1cc(C(=O)N2CCCCC2CCc2ccc(O)cc2)cn1 (stereo unspecified) | -10.3
COCCCn1cnnc1CNc1cc(C)nc2ccnn12 | -4.02
CC(C)CCN(C)Cc1ccccc1-c1nc(C(C)C)cc(=O)[nH]1 | 0.496
CSCC(=O)N1C[C@H]2CC[C@@H]1CN(C1Cc3ccccc3C1)C2 | -9.76
COC[C@]1(O)CCN(Cc2ccc(N(C)C)nc2)CC1(C)C | -17.9
CN1CCC(N(Cc2ccncc2)C(=O)COCC2CCCCO2)CC1 (stereo unspecified) | -1.65
Cc1ccccc1CN1C[C@@H]2CC[C@H](C1)N(CC1CCC1)C2=O | -4.63
CCC(=O)N1CCCC1C(=O)N1CCC(Cc2ccc(F)cc2)CC1 (stereo unspecified) | -9.21
CS(=O)(=O)NCCC(=O)N1CCC(Cc2ccc(CO)cc2)C1 (stereo unspecified) | 1.14
O=C(N[C@@H]1CCN(c2nccc3ccccc23)C[C@H]1O)c1cnccn1 | 9.52
CC(C)(CO)Nc1ccc(-c2nc(-c3ccccc3F)no2)cn1 | -5.95
COCC[C@]1(O)CCN(S(=O)(=O)c2ccc(C)cc2OC)C[C@H]1C | -4.64
COc1ccc(OC)c2c(C)cc(N(C)Cc3cc(C)on3)nc12 | 23.1

SMILES | cytotoxicity at 70.5 h [%]
CC(C)Cn1cncc1CNC(=O)c1cccc(CC2CCNCC2)c1 | 8.07
Cc1ncc(CNC2CC(=O)N(CCc3ccc(F)cc3)C2)n1C (stereo unspecified) | -10.7
Cc1nnsc1C(=O)NCc1cccnc1N1CCc2ccccc2C1 | 16.7
CCN1CCCC(c2c(-c3ccccc3)ncn2CC(N)=O)C1 (stereo unspecified) | -0.352
CCCc1cc(NC2CCN(Cc3ccccn3)CC2)n2nccc2n1 | -4.87
C[C@@H]1CN(C2(C(=O)N3CCNCC3)Cc3ccccc3C2)C[C@H](C)O1 | -2.17
CC(C)c1noc(-c2ccc(NCC3CCCOC3)nc2)n1 (stereo unspecified) | -12.4
COc1ccc(CC2CN(C3CCSCC3)CCO2)cc1 (stereo unspecified) | 1.2
NC(=O)NCC(=O)N1CCCC(c2nccn2CC2CCC2)C1 (stereo unspecified) | -1.33
CCc1[nH]c2c(CNC(=O)[C@@H]3CCCN3C)cc(C)cc2c1C | 6.71
O=C1O[C@@H]2CN(c3cnccn3)C[C@@H]2N1CCCc1ccc(F)cc1 | -7.8
O=C(NCCCc1nnc2ccccn12)c1ccccc1C1CCNC1 (stereo unspecified) | -0.698
CCc1nc(CN(CCc2ccccc2)C2CCN(C)CC2)no1 | -9.81
CNc1nc(N2CCC3(CCCNC3=O)C2)nc2c1CCC2 (stereo unspecified) | -6.8
CN(C)c1ccc(CC(=O)N2CCOCC(O)C2)cc1 (stereo unspecified) | 22.5
COc1cccc(OC)c1CN1CC(=O)N(c2ccc(C)cc2)CC1C (stereo unspecified) | 1.44
CN1C(=O)CC(C(=O)O)C12CCN(Cc1ccc(Cl)c(F)c1)CC2 (stereo unspecified) | 9.92
O=C(C1CCC1)N1CCN(Cc2ccccc2F)[C@H]2CS(=O)(=O)C[C@H]21 | -4.65
O=C(c1ccc[nH]1)N1CCc2c(cccc2S(=O)(=O)N2CCOCC2)C1 | 29.8
COc1ncc(CN2CCC3(CCNC(=O)CC3)CC2)cn1 | 4.98
CCCN(CC)Cc1ccc(C(=O)NCC2COCCO2)c(=O)[nH]1 (stereo unspecified) | -6.16
CN(Cc1ccncc1)Cc1cnn(-c2ccc(F)cc2)c1 | -13.3
CCCS(=O)(=O)N1C[C@@H]2CC[C@H](C1)N(Cc1cscn1)C2=O | -9.73

SMILES | cytotoxicity at 70.5 h [%]
COc1cccc(OCCCc2cc(C#N)ccn2)c1 | 11
O=C(NCCc1nc(-c2ccccn2)no1)c1ccc(C2CCCO2)s1 (stereo unspecified) | -5.15
Cc1nc(CCNC(=O)C2CC(=O)N(C(C)(C)C)C2)sc1Cl (stereo unspecified) | 4.69
CCOCc1nc2c(c(N(C)Cc3snnc3C)n1)CCNCC2 | -9.47
COCCn1ccnc1CN(Cc1ccccn1)Cc1sccc1C | -7.84
COc1ccc(F)c(-c2cc(C(=O)NC3CC3)ccn2)c1 | -14.2
O=C(NCc1cccc(C(F)(F)F)c1)C(c1cccnc1)N1CCCC1 (stereo unspecified) | -4.98
CC(c1cccc(-c2ncc(C#N)c(N)n2)c1)N(C)C (stereo unspecified) | -12.5
CN(C)CCNc1cc(-c2ccccc2C(N)=O)c2cc[nH]c2n1 | -8.6
O=C(Cn1ccnc1)N(CCO)CCSc1ccc(Cl)cc1 | -8.84
COc1ccc(C(=O)C2CCCN(c3cc(OC)ncn3)C2)c(C)c1 (stereo unspecified) | 10.1
Nc1nc2c(c(NC(Cn3cccn3)c3ccccc3)n1)CCNCC2 (stereo unspecified) | 0.802
O=S(=O)(c1cccnc1)N1C[C@@H]2CC[C@H](C1)N(Cc1ccccn1)C2 | -5.11
Cc1nc(N2CCCCC2)ncc1-c1cc(=O)[nH]c(N2CCCC2)n1 | 2.6
CCC(NC(=O)C1CCN(S(C)(=O)=O)CC1)c1ccc(C)cc1 (stereo unspecified) | -3.68
CCN(c1ccc(C(=O)N2CCCCCC2)cc1)S(=O)(=O)CC | -2.32
CN(c1ccc(C(=O)NCCN2CCOCC2)c(Cl)c1)S(C)(=O)=O | -1.41
CC(C)Cc1cc(C(=O)NCC(O)c2ccc(F)cc2)n(C)n1 (stereo unspecified) | -16.2
CN1CCC(Oc2ccc(NC(=O)c3ccccc3)cc2)CC1 | -9.56
Cc1cc(Cc2ccc(S(=O)(=O)N3CCSCC3)cc2)c(=O)[nH]n1 | 1.5
O=C(c1ncccc1O)N1CCN(Cc2ccco2)C(CCO)C1 (stereo unspecified) | -11.1
CC(C)[C@@H]1CN(Cc2ccccc2C#N)C[C@H]1N(C)C | 31.1
Cc1cccc(NCc2nn(C)c(=O)[nH]2)c1 | -11

SMILES | cytotoxicity at 70.5 h [%]
CCC(C(=O)NCc1ccccn1)N(c1cccc(C)c1)S(C)(=O)=O (stereo unspecified) | -1.44
CCCN1CCCn2nc(CNC(=O)CC(C)n3ccnc3C)cc2C1 (stereo unspecified) | 9.04
CCN(c1ccc(C(=O)N2CCC(C(N)=O)CC2)cc1)S(=O)(=O)CC | 15.4
CCCOCC1CCN(C(=O)c2cnc(-c3csc(C)n3)nc2O)C1 (stereo unspecified) | -8.59
Cc1ccc(-c2noc(CC[C@@H]3CCCN4CCCC[C@H]34)n2)nn1 | -3.37
COc1ccc(N2Cc3n[nH]c(=O)n3C2=O)cc1 | -3.14
CN(c1ccc(Cl)c(C(=O)NCCCN2CCOCC2)c1)S(C)(=O)=O | 3.59
CC(C)c1cc(-c2nn3c(C(C)C)nnc3s2)[nH]n1 | -11.4
CC(=O)Cn1c(C)cc(=O)c2cc(F)ccc21 | 1.19
Cc1nc(N2CCCN(c3ncccn3)CC2)c2cnn(C)c2n1 | -3.77
C/C=C(\C)CN1C[C@H](NC(=O)CN2CCCC2=O)[C@@H](c2ccc(C)o2)C1 | 9.35
Cc1nc2c(c(=O)n1C)CCN(Cc1cc3ccccc3[nH]1)CC2 | 0.793
CCc1nc(NC2CCN(CC(=O)NC3CC3)CC2)c2cnn(C)c2n1 | 14.5
Cc1cc(C(=O)NCCC2CCN(C)CC2)ccc1N(C)S(C)(=O)=O | -10.7
CCN1CCC(CC(=O)N2CCc3sc(C(=O)N(C)C)cc3C2)CC1 | 20.6
OC1(c2cn(C3CCN(C4CCSC4)CC3)nn2)CCCC1 (stereo unspecified) | -4.72
CC(NC(=O)CN(C)S(C)(=O)=O)c1ccc(F)cc1 (stereo unspecified) | -11.2
COCc1noc(-c2ccc(N(C)Cc3c(C)n[nH]c3C)nc2)n1 | -5.36
CCOc1ccc(CC(=O)N2CCCC2c2cc(C)on2)cc1 (stereo unspecified) | -3.15
CCNc1ncc(C(=O)NC2CCSC2)cn1 (stereo unspecified) | 8.53
O=C1CC(c2ccsc2)c2snc(C(=O)O)c2N1 (stereo unspecified) | 8.48
Cc1ccc(F)cc1NC(=O)C1CCCN1C(=O)C(C)C (stereo unspecified) | -5.39
Cc1cccnc1N1CCN(C(=O)CCc2cn3ccccc3n2)CC1 | 15.3

SMILES | cytotoxicity at 70.5 h [%]
Cc1cc(=O)c2cc(F)ccc2n1CC(=O)O | -3.7
CCN(Cc1ccc(O)c(C(=O)O)c1)CC1CCOCC1 | -0.0411
COc1ccc(C2CCCN2S(=O)(=O)c2cc(F)ccc2F)cc1 (stereo unspecified) | -6.85
O=C(c1ccc2nccn2c1)N1CCC(CCn2cccn2)CC1 | -9.36
CCN(c1ccc(C(=O)N2CCC(C)CC2)cc1)S(=O)(=O)CC | 2.02
Cc1cnccc1N1CCN(c2nccc(CCC(F)(F)F)n2)CC1 | -9.06
COc1ccc(CNCC(O)c2cccc(O)c2)cc1Br (stereo unspecified) | -3.02
Cc1ncn(-c2cc(N3CCN(S(C)(=O)=O)CC3)ncn2)c1C | -4.92
CCn1c(C)nnc1SCCNc1nc(C)nc2c1cnn2C | -9.87
O=C(c1cccc(CO)n1)N1CCOC(c2ccc(Cl)c(Cl)c2)C1 (stereo unspecified) | -9.7
COCCC(=O)N1Cc2cnc(Cc3ccc(OC)cc3)nc2C1 | -1.53
CC(C)CNC(=O)c1ccc2c(=O)n(-c3ccccc3)cnc2c1 | -5.61
CN(C)C1CCCN(C(=O)c2ccc3sc4c(c3c2)CCNC4=O)CC1 (stereo unspecified) | 1.18
CC(C)Oc1ccccc1OCCN1C(=O)CCNC1=O | 22.4
CCCNC(=O)CCC(=O)N1CCC(c2noc3cc(F)ccc23)CC1 | -8.21
CC(C)C(Nc1nc(C(F)(F)F)nc2ccccc12)C(=O)O (stereo unspecified) | -1.94
COCc1nc(C2CC2)nn1-c1cc(Cl)ccc1OC | -3.71
CS(=O)(=O)N1CCN(c2ccnc(N3CCCC3)n2)CC1 | -4.19
COc1ccc(NC(=O)Cn2nc(C)c(C)cc2=O)c(OC)c1 | -8.67
